According to ChEMBL document CHEMBL1128886, “Synthesis and pharmacological evaluation of a novel series of 5-aryl benzimidazole angiotensin II receptor antagonists” (1995):
Activity calls are given as the source filed them. No cut-off for these calls is given here.

Columns and labels:
[1] = target: T1, Type-1 angiotensin II receptor (Oryctolagus cuniculus) (UniProt P34976); assay: In vitro antagonist activity against Angiotensin II Receptor (Ang II) in isolated rabbit thoracic aorta.; assay type: functional, tissue-based
T1 sequence (whole entry): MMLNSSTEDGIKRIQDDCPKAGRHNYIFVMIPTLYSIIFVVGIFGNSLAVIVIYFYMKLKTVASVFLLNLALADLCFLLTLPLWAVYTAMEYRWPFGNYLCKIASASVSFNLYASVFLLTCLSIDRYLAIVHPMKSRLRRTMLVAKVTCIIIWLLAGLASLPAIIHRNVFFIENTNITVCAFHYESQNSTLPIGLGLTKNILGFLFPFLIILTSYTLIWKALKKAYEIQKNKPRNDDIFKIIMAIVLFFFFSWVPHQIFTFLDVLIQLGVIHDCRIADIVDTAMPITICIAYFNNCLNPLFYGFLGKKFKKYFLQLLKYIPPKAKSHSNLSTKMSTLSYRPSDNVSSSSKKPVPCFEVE

Rattus norvegicus [2] = assay: Evaluated in vivo for its ability to block the pressor response to Ang II in pithed rats following oral administration; NA means not active at the dose (10 mg/kg) and time tested (4 h); assay type: functional, organism-based
Rattus norvegicus [3] = assay: Evaluated in vivo for its ability to block the pressor response to Ang II in pithed rats following oral administration.; assay type: functional

Row | SMILES | pKB [1] | KB (Rattus norvegicus [2]) | KB (Rattus norvegicus [3])
1 | CCCCCCC(C(=O)O)n1cnc2cc(-c3ccccc3S(=O)(=O)O)ccc21 (stereo in doubt) | 5.6 |  | 
2 | CCCCCC[C@H](C(=O)N1C[C@@H](Oc2ccc(CC(=O)O)cc2)C[C@H]1C(=O)O)n1cnc(NC(=O)c2ccccc2S(=O)(=O)O)c1 | 9.7 |  | 2.8 mg/kg
3 | CCCCCCC(C(=O)O)n1cnc2cc(-c3ccccc3S(=O)(=O)O)ccc21 (stereo in doubt; 4) | 7.7 | inactive | 
4 | CCCCCC[C@@H](C(=O)N1C[C@@H](Oc2ccc(CC(=O)O)cc2)C[C@H]1C(=O)O)n1cnc2cc(-c3ccccc3S(=O)(=O)O)ccc21 | 7.8 |  | 

More lines, main results first:

Row | pKB [1] | SMILES | KB (Rattus norvegicus [2]) | KB (Rattus norvegicus [3])
5 | 7.2 | CCCCCCC(C(=O)O)n1cnc(NC(=O)c2ccccc2S(=O)(=O)O)c1 (centres undefined) | inactive | 
6 | 9.1 | CCCCCC[C@H](C(=O)N1C[C@@H](Oc2ccccc2)C[C@H]1C(=O)O)n1cnc(NC(=O)c2ccccc2S(=O)(=O)O)c1 |  | 
7 | 9 | CCCCCC[C@H](C(=O)N1C[C@@H](Oc2ccc(CC(=O)O)cc2)C[C@H]1C(=O)O)n1cnc2cc(-c3ccccc3S(=O)(=O)O)ccc21 | inactive | 
8 | 7.6 | CCCCCC[C@@H](C(=O)N1C[C@@H](Oc2ccccc2)C[C@H]1C(=O)O)n1cnc(NC(=O)c2ccccc2S(=O)(=O)O)c1 |  | 
9 | 8.4 | CCCCCC[C@@H](C(=O)N1C[C@@H](Oc2ccc(CC(=O)O)cc2)C[C@H]1C(=O)O)n1cnc(NC(=O)c2ccccc2S(=O)(=O)O)c1 | inactive | 
